Test results reported in PMC4331254 (European journal of pharmacology, 2015).
Where two headings read alike, the source gives them in different places.

What was measured:
male Sprague-Dawley rats [1] = settings: for substitution for phenyzoline discriminative stimulus: full ≥ 80%, partial ≥ 60% and < 80% training drug-appropriate responding; for antagonism of the discriminative stimulus effects of phenyzoline: 10-min pretreatment, dose ratio 95% CLs included 1
male Sprague-Dawley rats [2] = settings: for substitution for BU224 discriminative stimulus: full ≥ 80%, partial ≥ 60% and < 80% training drug-appropriate responding; for antagonism of the discriminative stimulus effects of BU224: 10-min pretreatment, dose ratio 95% CLs included 1
[3] = system: rats discriminating 2-BFI; settings: ref MacInnes and Handley, 2002, Jordan et al., 1996; cited from earlier work
[4] = system: rats discriminating CR4056; settings: ref Qiu et al., 2014a; cited from earlier work
I2 receptors = settings: cited from earlier work
rats = settings: rat, in vivo; cited from earlier work
NET = NET (Homo sapiens, UniProt P23975); assay: Binding selectivity screening, NET; settings: read-out: % inhibition (10nM)
δ opioid receptor = δ opioid receptor (Homo sapiens, UniProt P41143); assay: Binding selectivity screening, δ opioid receptor; settings: read-out: % inhibition (10nM)
5-HT3 = 5-HT3 (Homo sapiens, UniProt P46098); assay: Binding selectivity screening, 5-HT3; settings: read-out: % inhibition (10nM)
DAT = DAT (Homo sapiens, UniProt Q01959); assay: Binding selectivity screening, DAT; settings: read-out: % inhibition (10nM)
D1 = D1 (Homo sapiens, UniProt P21728); assay: Binding selectivity screening, D1; settings: read-out: % inhibition (10nM)
5-HT1A = 5-HT1A (Homo sapiens, UniProt P08908); assay: Binding selectivity screening, 5-HT1A
SERT = SERT (Homo sapiens, UniProt P31645); assay: Binding selectivity screening, SERT; settings: read-out: % inhibition (10nM)
5-HT2A = 5-HT2A (Homo sapiens, UniProt P28223); assay: Binding selectivity screening, 5-HT2A; settings: read-out: % inhibition (10nM)
D2 = D2 (Homo sapiens, UniProt P14416); assay: Binding selectivity screening, D2; settings: read-out: % inhibition (10nM)
alpha 1D = alpha 1D (Homo sapiens, UniProt P25100); assay: Binding selectivity screening, alpha 1D; settings: read-out: % inhibition (10nM)
D4 = D4 (Homo sapiens, UniProt P21917); assay: Binding selectivity screening, D4; settings: read-out: % inhibition (10nM)
5-HT1B = 5-HT1B (Homo sapiens, UniProt P28222); assay: Binding selectivity screening, 5-HT1B; settings: read-out: % inhibition (10nM)
β 1 = β 1 (Homo sapiens, UniProt P08588); assay: Binding selectivity screening, β 1; settings: read-out: % inhibition (10nM)
μ opioid receptor = μ opioid receptor (Homo sapiens, UniProt P35372); assay: Binding selectivity screening, μ opioid receptor; settings: read-out: % inhibition (10nM)
M5 = M5 (Homo sapiens, UniProt P08912); assay: biochemical; type: binding; settings: read-out: % inhibition (10nM)
D3 = D3 (Homo sapiens, UniProt P35462); assay: Binding selectivity screening, D3; settings: read-out: % inhibition (10nM)
M2 = M2 (Homo sapiens, UniProt P08172); assay: biochemical; type: binding; settings: read-out: % inhibition (10nM)
5-HT1E = 5-HT1E (Homo sapiens, UniProt P28566); assay: Binding selectivity screening, 5-HT1E; settings: read-out: % inhibition (10nM)
β 2 = β 2 (Homo sapiens, UniProt P07550); assay: Binding selectivity screening, β 2; settings: read-out: % inhibition (10nM)
β 3 = β 3 (Homo sapiens, UniProt P13945); assay: Binding selectivity screening, β 3; settings: read-out: % inhibition (10nM)
5-HT5A = 5-HT5A (Homo sapiens, UniProt P47898); assay: Binding selectivity screening, 5-HT5A; settings: read-out: % inhibition (10nM)
alpha 2C = alpha 2C (Homo sapiens, UniProt P18825); assay: Binding selectivity screening, alpha 2C; settings: read-out: % inhibition (10nM)
D5 = D5 (Homo sapiens, UniProt P21918); assay: Binding selectivity screening, D5; settings: read-out: % inhibition (10nM)
H4 = H4 (Homo sapiens, UniProt Q9H3N8); assay: Binding selectivity screening, H4; settings: read-out: % inhibition (10nM)
M1 = M1 (Homo sapiens, UniProt P11229); assay: biochemical; type: binding; settings: read-out: % inhibition (10nM)
M3 = M3 (Homo sapiens, UniProt P20309); assay: biochemical; type: binding; settings: read-out: % inhibition (10nM)
5-HT7 = 5-HT7 (Homo sapiens, UniProt P34969); assay: Binding selectivity screening, 5-HT7; settings: read-out: % inhibition (10nM)
H3 = H3 (Homo sapiens, UniProt Q9Y5N1); assay: Binding selectivity screening, H3; settings: read-out: % inhibition (10nM)
κ opioid receptor = κ opioid receptor (Homo sapiens, UniProt P41145); assay: Binding selectivity screening, κ opioid receptor; settings: read-out: % inhibition (10nM)
alpha 2B [5] = target: alpha 2B (Homo sapiens, UniProt P18089); assay: Binding selectivity screening, alpha 2B; settings: read-out: % inhibition (10nM)
alpha 1A = alpha 1A (Homo sapiens, UniProt P35348); assay: Binding selectivity screening, alpha 1A; settings: read-out: % inhibition (10nM)
5-HT1D = 5-HT1D (Homo sapiens, UniProt P28221); assay: Binding selectivity screening, 5-HT1D; settings: read-out: % inhibition (10nM)
alpha 2A = alpha 2A (Homo sapiens, UniProt P08913); assay: Binding selectivity screening, alpha 2A
5-HT2C = 5-HT2C (Homo sapiens, UniProt P28335); assay: Binding selectivity screening, 5-HT2C; settings: read-out: % inhibition (10nM)
alpha 2B [6] = target: alpha 2B (Homo sapiens, UniProt P35368); assay: Binding selectivity screening, alpha 2B; settings: read-out: % inhibition (10nM)
M4 = M4 (Homo sapiens, UniProt P08173); assay: biochemical; type: binding; settings: read-out: % inhibition (10nM)
H1 = H1 (Homo sapiens, UniProt P35367); assay: Binding selectivity screening, H1; settings: read-out: % inhibition (10nM)

M1, sequence (P11229 whole entry): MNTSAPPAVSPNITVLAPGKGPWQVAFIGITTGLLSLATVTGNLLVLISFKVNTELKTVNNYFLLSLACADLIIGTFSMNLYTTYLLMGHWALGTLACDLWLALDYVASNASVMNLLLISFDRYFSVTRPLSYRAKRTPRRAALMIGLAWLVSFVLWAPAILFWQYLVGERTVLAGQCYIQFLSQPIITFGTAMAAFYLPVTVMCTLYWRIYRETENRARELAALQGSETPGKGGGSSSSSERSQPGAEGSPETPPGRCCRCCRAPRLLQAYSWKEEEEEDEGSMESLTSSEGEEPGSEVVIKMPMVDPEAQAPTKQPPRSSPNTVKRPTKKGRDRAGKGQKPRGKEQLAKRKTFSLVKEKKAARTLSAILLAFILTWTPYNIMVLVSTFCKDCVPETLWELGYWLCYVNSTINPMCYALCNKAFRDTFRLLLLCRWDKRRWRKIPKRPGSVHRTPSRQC
D5, sequence (P21918 whole entry): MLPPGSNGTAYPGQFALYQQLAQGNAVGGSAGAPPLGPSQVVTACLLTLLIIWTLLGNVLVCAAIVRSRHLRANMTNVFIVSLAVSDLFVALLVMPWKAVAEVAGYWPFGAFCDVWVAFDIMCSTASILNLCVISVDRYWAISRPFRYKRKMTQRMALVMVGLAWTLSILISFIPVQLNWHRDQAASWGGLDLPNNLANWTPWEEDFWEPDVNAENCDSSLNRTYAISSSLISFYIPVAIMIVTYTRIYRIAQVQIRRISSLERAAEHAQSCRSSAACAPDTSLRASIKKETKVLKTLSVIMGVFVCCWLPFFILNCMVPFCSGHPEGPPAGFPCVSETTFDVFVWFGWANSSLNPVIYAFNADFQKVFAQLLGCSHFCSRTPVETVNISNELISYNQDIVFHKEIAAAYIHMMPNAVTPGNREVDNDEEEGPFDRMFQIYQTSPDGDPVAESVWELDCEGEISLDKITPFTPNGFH
5-HT1A, sequence (P08908 whole entry, species assumed): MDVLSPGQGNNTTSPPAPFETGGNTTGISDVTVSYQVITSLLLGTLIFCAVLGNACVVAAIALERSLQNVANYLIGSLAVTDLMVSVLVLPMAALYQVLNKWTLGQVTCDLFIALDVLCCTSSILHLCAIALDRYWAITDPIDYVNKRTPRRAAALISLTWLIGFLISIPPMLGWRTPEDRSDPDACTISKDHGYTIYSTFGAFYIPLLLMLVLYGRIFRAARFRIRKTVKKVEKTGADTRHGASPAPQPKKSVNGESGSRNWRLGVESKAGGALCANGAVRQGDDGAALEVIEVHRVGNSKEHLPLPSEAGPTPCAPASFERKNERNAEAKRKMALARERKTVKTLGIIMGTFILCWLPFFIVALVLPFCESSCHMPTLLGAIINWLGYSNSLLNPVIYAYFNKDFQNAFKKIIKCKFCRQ
β 3, sequence (P13945 whole entry): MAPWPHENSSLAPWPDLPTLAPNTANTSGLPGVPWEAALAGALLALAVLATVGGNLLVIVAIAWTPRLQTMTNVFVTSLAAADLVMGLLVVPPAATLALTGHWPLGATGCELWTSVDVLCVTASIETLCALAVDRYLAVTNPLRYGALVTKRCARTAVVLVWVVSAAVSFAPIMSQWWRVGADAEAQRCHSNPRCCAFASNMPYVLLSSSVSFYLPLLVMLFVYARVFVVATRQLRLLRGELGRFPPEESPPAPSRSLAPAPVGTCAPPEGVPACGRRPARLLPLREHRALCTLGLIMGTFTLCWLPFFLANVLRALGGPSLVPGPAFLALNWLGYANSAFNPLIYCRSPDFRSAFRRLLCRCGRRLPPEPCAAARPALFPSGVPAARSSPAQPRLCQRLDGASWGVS
DAT, sequence (Q01959 whole entry): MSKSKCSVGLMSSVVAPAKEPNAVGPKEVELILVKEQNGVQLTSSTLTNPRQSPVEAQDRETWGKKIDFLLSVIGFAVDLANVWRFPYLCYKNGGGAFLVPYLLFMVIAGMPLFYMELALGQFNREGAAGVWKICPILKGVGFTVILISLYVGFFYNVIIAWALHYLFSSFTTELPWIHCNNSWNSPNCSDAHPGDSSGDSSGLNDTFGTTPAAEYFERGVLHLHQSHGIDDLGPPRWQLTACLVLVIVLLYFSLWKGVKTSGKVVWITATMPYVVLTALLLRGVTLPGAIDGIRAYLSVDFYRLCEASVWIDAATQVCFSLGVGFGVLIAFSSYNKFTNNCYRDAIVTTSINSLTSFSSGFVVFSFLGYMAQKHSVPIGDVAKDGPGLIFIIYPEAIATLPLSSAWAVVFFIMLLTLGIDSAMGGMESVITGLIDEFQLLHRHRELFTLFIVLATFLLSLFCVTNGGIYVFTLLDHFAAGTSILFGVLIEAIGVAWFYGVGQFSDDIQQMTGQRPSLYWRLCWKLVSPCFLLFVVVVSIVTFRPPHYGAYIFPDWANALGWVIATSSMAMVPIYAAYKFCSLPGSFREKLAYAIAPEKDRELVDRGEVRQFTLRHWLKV
M5, sequence (P08912 whole entry): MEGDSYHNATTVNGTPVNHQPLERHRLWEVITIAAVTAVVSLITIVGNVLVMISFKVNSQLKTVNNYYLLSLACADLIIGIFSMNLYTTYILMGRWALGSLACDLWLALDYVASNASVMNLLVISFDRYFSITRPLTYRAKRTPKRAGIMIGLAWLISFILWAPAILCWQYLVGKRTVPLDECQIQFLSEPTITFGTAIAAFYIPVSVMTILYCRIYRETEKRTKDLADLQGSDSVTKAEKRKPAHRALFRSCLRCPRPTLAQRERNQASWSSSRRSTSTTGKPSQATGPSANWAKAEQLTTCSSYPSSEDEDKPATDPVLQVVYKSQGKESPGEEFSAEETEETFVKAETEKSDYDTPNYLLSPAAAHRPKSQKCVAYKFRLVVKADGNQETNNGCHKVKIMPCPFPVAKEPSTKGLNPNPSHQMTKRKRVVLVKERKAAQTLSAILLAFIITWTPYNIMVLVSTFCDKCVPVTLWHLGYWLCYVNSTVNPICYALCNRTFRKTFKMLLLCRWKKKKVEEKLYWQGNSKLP
D1, sequence (P21728 whole entry): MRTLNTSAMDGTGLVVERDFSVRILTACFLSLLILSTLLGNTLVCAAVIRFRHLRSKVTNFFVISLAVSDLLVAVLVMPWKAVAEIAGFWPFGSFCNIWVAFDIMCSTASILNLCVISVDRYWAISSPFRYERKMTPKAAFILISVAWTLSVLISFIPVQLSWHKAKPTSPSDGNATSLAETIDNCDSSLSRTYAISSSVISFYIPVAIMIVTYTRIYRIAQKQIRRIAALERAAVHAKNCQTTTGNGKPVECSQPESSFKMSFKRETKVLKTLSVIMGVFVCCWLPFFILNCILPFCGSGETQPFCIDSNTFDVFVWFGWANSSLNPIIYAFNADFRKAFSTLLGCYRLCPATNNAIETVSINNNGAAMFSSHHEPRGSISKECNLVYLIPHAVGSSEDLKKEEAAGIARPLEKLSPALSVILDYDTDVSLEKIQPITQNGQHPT
5-HT2C, sequence (P28335 33-458): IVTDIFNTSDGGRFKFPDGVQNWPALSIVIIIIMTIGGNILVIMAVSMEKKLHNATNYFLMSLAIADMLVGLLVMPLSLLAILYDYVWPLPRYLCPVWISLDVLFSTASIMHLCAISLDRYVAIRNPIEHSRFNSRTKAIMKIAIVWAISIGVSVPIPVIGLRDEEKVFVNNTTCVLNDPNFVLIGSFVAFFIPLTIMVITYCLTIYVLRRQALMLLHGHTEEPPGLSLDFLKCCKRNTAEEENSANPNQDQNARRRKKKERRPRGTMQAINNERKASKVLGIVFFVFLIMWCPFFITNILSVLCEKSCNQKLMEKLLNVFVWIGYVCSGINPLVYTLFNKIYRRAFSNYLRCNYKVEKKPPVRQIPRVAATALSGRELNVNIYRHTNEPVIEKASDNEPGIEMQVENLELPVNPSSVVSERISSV
alpha 1A, sequence (P35348 whole entry): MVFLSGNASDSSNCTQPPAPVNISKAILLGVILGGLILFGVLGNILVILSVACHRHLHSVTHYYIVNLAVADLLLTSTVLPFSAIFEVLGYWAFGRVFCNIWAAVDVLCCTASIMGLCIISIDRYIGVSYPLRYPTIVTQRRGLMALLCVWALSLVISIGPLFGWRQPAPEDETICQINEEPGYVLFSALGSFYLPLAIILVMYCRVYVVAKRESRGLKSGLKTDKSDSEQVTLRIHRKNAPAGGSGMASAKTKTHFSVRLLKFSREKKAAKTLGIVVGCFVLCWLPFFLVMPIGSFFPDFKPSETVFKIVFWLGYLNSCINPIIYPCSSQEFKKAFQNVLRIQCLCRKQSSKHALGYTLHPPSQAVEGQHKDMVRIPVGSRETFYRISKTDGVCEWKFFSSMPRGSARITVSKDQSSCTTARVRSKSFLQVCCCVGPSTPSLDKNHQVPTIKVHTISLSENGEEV
μ opioid receptor, sequence (P35372 whole entry): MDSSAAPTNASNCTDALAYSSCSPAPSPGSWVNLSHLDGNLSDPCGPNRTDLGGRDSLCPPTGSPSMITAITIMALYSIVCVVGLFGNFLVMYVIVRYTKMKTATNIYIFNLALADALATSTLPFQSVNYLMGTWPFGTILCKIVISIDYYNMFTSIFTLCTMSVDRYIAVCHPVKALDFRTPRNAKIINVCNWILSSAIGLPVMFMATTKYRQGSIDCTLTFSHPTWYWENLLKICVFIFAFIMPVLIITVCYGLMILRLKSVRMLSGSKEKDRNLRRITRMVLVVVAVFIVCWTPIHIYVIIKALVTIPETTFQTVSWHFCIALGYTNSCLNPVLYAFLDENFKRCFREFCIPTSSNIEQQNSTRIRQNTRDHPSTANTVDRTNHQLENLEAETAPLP

In the case of `CN1CC[C@]23c4c5ccc(O)c4O[C@H]2[C@@H](O)C=C[C@H]3[C@H]1C5` [morphine], the “substitution for phenyzoline discriminative stimulus” value (male Sprague-Dawley rats [1]) is reported as “partial substitution” and the “substitution for BU224 discriminative stimulus” value (male Sprague-Dawley rats [2]) is reported as “partial or less substitution”.
For `CCC(=O)C(CC(C)N(C)C)(c1ccccc1)c1ccccc1` (centres unmarked) [methadone], the “substitution for BU224 discriminative stimulus” value (male Sprague-Dawley rats [2]) was “partial or less substitution”.
In the case of `O=C1CC[C@@]2(O)[C@H]3Cc4ccc(O)c5c4[C@@]2(CCN3CC2CC2)[C@H]1O5` [naltrexone], the “antagonism of the discriminative stimulus effects of phenyzoline” value (“antagonism … of phenyzoline” for short) (male Sprague-Dawley rats [1]) is reported as “failed to antagonize” and the “antagonism of the discriminative stimulus effects of BU224” value (from here on “antagonism … of BU224”) (male Sprague-Dawley rats [2]) is reported as “failed to antagonize”.
In the case of `COc1ccc2c3c([nH]c2c1)C(C)=NCC3` [harmaline], the “substitution for 2-BFI discriminative stimulus” value [3] is listed as “fully substitute”.
In the case of `O=C(CCCN1CCC(O)(c2ccc(Cl)cc2)CC1)c1ccc(F)cc1` [haloperidol], the “antagonism … of phenyzoline” value (male Sprague-Dawley rats [1]) is reported as “failed to antagonize” and the “antagonism … of BU224” value (male Sprague-Dawley rats [2]) is reported as “failed to antagonize”.
In the case of `Cc1nccc2c1[nH]c1ccccc12` [harmane], the “substitution for 2-BFI discriminative stimulus” value [3] is given as “fully substitute”, the “substitution for CR4056 discriminative stimulus” value [4] is given as “does not substitute” and the “substitution for phenyzoline discriminative stimulus” value (male Sprague-Dawley rats [1]) is given as “only partially substitutes”. The “substitution for BU224 discriminative stimulus” value (male Sprague-Dawley rats [2]) was “fully substitutes”.
In the case of `C(=C\c1ccccc1)/C1=NCCN1` [tracizoline, 2-styryl-4,5-dihydro-lH-imidazole], the “selectivity for I2 receptors over I1 receptors” value (I2 receptors; ref Pigini et al., 1997) is listed as 10 fold and the “selectivity for I2 receptors over α2 adrenoceptors” value (I2 receptors; ref Pigini et al., 1997) is listed as 7431 fold.
In the case of `CN[C@@H](C)Cc1ccccc1` [methamphetamine], the “substitution for phenyzoline discriminative stimulus” value (male Sprague-Dawley rats [1]) is reported as “partial substitution” and the “substitution for BU224 discriminative stimulus” value (male Sprague-Dawley rats [2]) is reported as “partial or less substitution”.
In the case of `NCCCCN=C(N)N` [agmatine], the “substitution for BU224 discriminative stimulus” value (male Sprague-Dawley rats [2]) is reported as “partial or less substitution”.
For `Cl.c1ccc2nc(C3=NCCN3)ccc2c1` [BU224, 2-(4,5-Dihydroimidazol-2-yl) quinoline hydrochloride], the “substitution for 2-BFI discriminative stimulus” value [3] is given as “fully substituted”, the “substitution for phenyzoline discriminative stimulus” value (male Sprague-Dawley rats [1]) is given as “completely substituted” and the “dose that significantly suppresses food-maintained operant responding” value (rats) is given as 17.8 mg/kg. The “duration of discriminative stimulus effects” value (male Sprague-Dawley rats [2]; 5.6 mg/kg BU224 i.p.) was 120 min and the “effect on response rate” value (male Sprague-Dawley rats [2]; rat, in vivo) was “without significantly altering response rate”.
In the case of `c1ccc(CCC2=NCCN2)cc1` [phenyzoline, 4,5-dihidro-2-(2-phenylethyl)-1H-imidazole], the “substitution for CR4056 discriminative stimulus” value [4] is given as “fully substituted”, the inhibition at 0.01 µM (NET) is given as 6.8% and the “duration of discriminative stimulus effects” value (male Sprague-Dawley rats [1]; 32 mg/kg phenyzoline i.p.) is given as 90 min. For the same compound, the “effect on response rate” value (male Sprague-Dawley rats [1]; rat, in vivo) was “without significantly altering response rate”, the inhibition at 0.01 µM (δ opioid receptor) was -2.7% and the inhibition at 0.01 µM (5-HT3) was -13.3%. It also gave an inhibition at 0.01 µM (DAT) of 43.6%, an inhibition at 0.01 µM (D1) of 0.9% and a Ki (5-HT1A) of over 10000 nM. For the same compound, the inhibition at 0.01 µM (SERT) was 21.9%, the inhibition at 0.01 µM (5-HT2A) was 38.4% and the inhibition at 0.01 µM (D2) was -7.3%. For the same compound, the inhibition at 0.01 µM (alpha 1D) was -0.6%, the inhibition at 0.01 µM (D4) was 9.1% and the inhibition at 0.01 µM (5-HT1B) was -2.6%. For the same compound, the inhibition at 0.01 µM (β 1) was -10.1%, the inhibition at 0.01 µM (μ opioid receptor) was 5.4% and the inhibition at 0.01 µM (M5) was 25.9%. It also gave an inhibition at 0.01 µM (D3) of -4.1%, an inhibition at 0.01 µM (M2) of 11.1% and an inhibition at 0.01 µM (5-HT1E) of -4.2%. For the same compound, the inhibition at 0.01 µM (β 2) was 22.9%, the inhibition at 0.01 µM (β 3) was -5.5% and the inhibition at 0.01 µM (5-HT5A) was 4.6%. For the same compound, the inhibition at 0.01 µM (alpha 2C) was 29.6%, the inhibition at 0.01 µM (D5) was -11.6% and the inhibition at 0.01 µM (H4) was 15.2%. For the same compound, the inhibition at 0.01 µM (M1) was -14.1%, the inhibition at 0.01 µM (M3) was -2% and the inhibition at 0.01 µM (5-HT7) was 23.7%. It also gave an inhibition at 0.01 µM (H3) of 10.4%, an inhibition at 0.01 µM (κ opioid receptor) of 7.1% and an inhibition at 0.01 µM (alpha 2B [5]) of 42.7%. The inhibition at 0.01 µM (alpha 1A) was 17.3%, the inhibition at 0.01 µM (5-HT1D) was 5% and the Ki (alpha 2A) was 851 nM. For the same compound, the inhibition at 0.01 µM (5-HT2C) was 14.3%, the inhibition at 0.01 µM (alpha 2B [6]) was 6.3% and the inhibition at 0.01 µM (M4) was -0.5%. It also gave an inhibition at 0.01 µM (H1) of -10.9%.
With `Clc1cccc(Cl)c1N=C1NCCN1` [clonidine] the “substitution for phenyzoline discriminative stimulus” value (male Sprague-Dawley rats [1]) was “partial substitution” and the “substitution for BU224 discriminative stimulus” value (male Sprague-Dawley rats [2]) was “partial or less substitution”.
With `COc1cccc([C@H](O)C2CCN(CCc3ccc(F)cc3)CC2)c1OC` [MDL100907, (R)-(2,3-dimethoxyphenyl)-[1-[2-(4-fluorophenyl)ethyl]-4-piperidyl] methanol] the “antagonism … of phenyzoline” value (male Sprague-Dawley rats [1]) was “failed to antagonize” and the “antagonism … of BU224” value (male Sprague-Dawley rats [2]) was “failed to antagonize”.
In the case of `CNC1(c2ccccc2Cl)CCCCC1=O` (centres unmarked) [ketamine], the “substitution for BU224 discriminative stimulus” value (male Sprague-Dawley rats [2]) is reported as “partial or less substitution”.
In the case of `Clc1cccc2c1CN(C1=NCCN1)C2` [RS45041, 4-chloro-2-(imidazolin-2-yl) isoindoline], the “phenyzoline-appropriate (drug-associated lever) responding, maximum” value (male Sprague-Dawley rats [1]; substitution test in rats discriminating 32 mg/kg phenyzoline) is given as over 80%, the “selectivity for I2 receptors over adrenoceptors, dopamine, 5-HT, muscarinic receptors and dihydropyridine binding sites” value (I2 receptors; ref Brown et al., 1995) is given as over 1000 fold and the “BU224-appropriate (drug-associated lever) responding, maximum” value (male Sprague-Dawley rats [2]; substitution test in rats discriminating 5.6 mg/kg BU224) is given as over 80%.
For `Cl.c1ccc2oc(C3=NCCN3)cc2c1` [2-BFI, 2-(2-Benzofuranyl)-2-imidazoline hydrochloride], the “substitution for phenyzoline discriminative stimulus” value (male Sprague-Dawley rats [1]) is given as “only partially substituted”, the “dose that significantly suppresses food-maintained operant responding” value (rats) is given as 10 mg/kg and the “substitution for BU224 discriminative stimulus” value (male Sprague-Dawley rats [2]) is given as “fully substituted”.
For `c1ccc2c(c1)OCC(C1=NCCN1)O2` (centres unmarked) [idazoxan], the “substitution for 2-BFI discriminative stimulus” value [3] is given as “fully substitutes”, the “substitution for phenyzoline discriminative stimulus” value (male Sprague-Dawley rats [1]) is given as “fully substituted” and the “substitution for BU224 discriminative stimulus” value (male Sprague-Dawley rats [2]) is given as “fully substituted”.
In the case of `c1ccc(-c2ncc3cc(-n4ccnc4)ccc3n2)cc1` [CR4056, 2-phenyl-6-(1H-imidazol-1-yl) quinazoline], the IC50 (I2 receptors; read-out: IC50 at I2 receptor, ref Ferrari et al., 2011) is given as 596 nM.
